Entries after “also recorded” stand apart in the source; their conditions may differ.
Key:
rabbit corpus cavernosum [1] = test: Effect on electrical field stimulation (EFS)-induced relaxation; assay type: cell-based
Description: Male New Zealand White rabbits (2.0-3.0 Kg) were killed by cervical dislocation. The abdominal cavity was opened and the penis excised, starting at the base of the organ at the pelvic bones. The corpus cavernosum was carefully dissected free from the surrounding tunica albuginea—2 tissue strips, approximately 10 mm×3 mm×2 mm in size, were obtained from each penis. The dissection was carried out in Krebs Ringer Solution. Tissues were used on the day of harvest.
The strips of corpus cavernosum and were mounted with surgical suture in 5 ml Wesley & Co. organ baths, and immersed in Kreb's solution maintained at 37° C. and aerated with 5% CO2/95% O2 to attain pH 7.4. The suture was connected to a force displacement transducer (Maywood Instruments Ltd.) and changes in isometric tension were recorded on the DART in vitro computer package. The tissues were put under an initial resting tension of 1.5 g and allowed to equilibrate for 1 hour. During equilibration, the tissues were rinsed at 5 ml/min. The approximate tissue tension after equilibration was 1 g. The tissues were then sensitised to contraction with phenylephrine (PE) (10 μM) and KCl (120 mM), and relaxation with sodium nitroprusside (SNP) (100 μM).
Tissues were bathed in “normal” Kreb's containing 5 μM guanethidine and 1 μM atropine, to block NA release and receptors respectively. EFS was delivered by a MS3 stimulator connected to 2 platinum electrodes which were placed at the top and bottom of the organ chambers. EFS parameters are as follows: Voltage=45-65V, Frequency=2-32 Hz, Pulse Width=0.2 ms, Train Duration=10 s. […] An EFS curve involved stimulating PE-contracted tissues at 2 Hz, 4 Hz, 8 Hz, 16 Hz and 32 Hz, and the degree of relaxation was measured by taking the minimum reading from the maximum reading obtained over a 30 s period. […]
For each dose response curve, the relaxation responses are expressed as a percentage of the PE-induced contraction. […] For EFS response curves, the degree of relaxation was expressed as a percentage of the PE-induced contraction. […]

rabbit aorta = test: Selectivity of EBIO for corpus cavernosum over cardiovascular tissue (isolated aorta); assay type: cell-based; conditions: in vitro
Description: PE (1 μM) or 80 mM K^+ contracted rabbit aorta sections were subjected to half-log unit cumulative additions of EBIO (10 nM-1 mM) with approximately 10 minute intervals between each addition.
For each dose response curve, the relaxation responses are expressed as a percentage of the PE-induced contraction. The mean values±s.e. mean are then plotted against log[drug] concentration. Sigmoidal curves were fitted to the data using Origin curve fitting computer package. For the purpose of curve fitting, the minimum relaxation response is constrained to 0% and the maximum relaxation response is allowed to free fit. For EFS response curves, the degree of relaxation was expressed as a percentage of the PE-induced contraction. These values were then plotted against the frequency of stimulation.

rabbit corpus cavernosum [2] = test: Mechanism of EBIO-induced relaxation (L-NOARG incubation, endothelium removal); assay type: cell-based; conditions: PE (10 μM) contracted
rabbit corpus cavernosum [3] = test: Effect of EBIO on cGMP-mediated (SNP-induced) relaxation; assay type: cell-based; conditions: EBIO 50 μM; SNP dose response
rabbit corpus cavernosum [4] = test: Direct relaxant effect of EBIO on contracted corpus cavernosum strips in organ baths; assay type: cell-based

Row | Compound | effect of ChTX on EBIO-induced potentiation of EFS-induced relaxation (rabbit corpus cavernosum [1]; ChTX 100 nM with EBIO 50 μM) | attenuation of endogenous NO-mediated (EFS-induced) relaxation (rabbit corpus cavernosum [1]; ChTX 100 nM, across the frequency range) | concentrations at which a relaxant effect on rabbit aorta occurs (rabbit aorta) [µM] | relaxant effect on rabbit aorta (rabbit aorta; PE (1 μM) or 80 mM K+ contracted, concentrations up to 100 μM) | effect on EFS-induced relaxation of PE-contracted corpus cavernosum (rabbit corpus cavernosum [1]; EBIO 50 μM, 2-32 Hz) | effect on blood pressure in vivo (Blood pressure in vivo) | EBIO-induced relaxation in the presence of L-NOARG (NOS inhibitor) (rabbit corpus cavernosum [2]; L-NOARG) | EBIO-induced relaxation in endothelium deprived corpus cavernosum (rabbit corpus cavernosum [2]; endothelium removed) | effect on SNP-induced relaxation of PE-contracted corpus cavernosum (rabbit corpus cavernosum [3]) | IC20 (rabbit corpus cavernosum [4]; Oryctolagus cuniculus, relaxation of rabbit corpus cavernosum) [µM] | relaxation of PE-contracted rabbit corpus cavernosum (rabbit corpus cavernosum [4]; PE (10 μM) contracted, EBIO 10 nM-1 mM cumulative, in vitro) | concentrations at which basal tone is suppressed (rabbit corpus cavernosum [4]; rabbit corpus cavernosum basal tone) [µM]
1 | charybdotoxin [ChTX] | caused a reduction; also recorded: sensitive | up to 30% |  |  |  |  |  |  |  |  |  | 
2 | CCn1c(=O)[nH]c2ccccc21 [EBIO, 1-ethyl-2-benzimidazolinone] |  |  | ≥ 100 | no relaxant effect | greatly potentiates; also recorded: enhanced | no effect | still observed | still observed; also recorded: not affected | potentiates; also recorded: enhanced | ~50 | concentration-dependent relaxation; also recorded: concentration dependent relaxation | ≥ 10

Reference: patent US20040185094A1, “Pharmaceutical” (priority 2000, published 2004)
